In patent US11084790B2, “Insoluble complex or solvate thereof, pharmaceutical composition and use thereof” (Fruithy Holdings Limited, priority 2017, dated 2021):

Experiment: Test on the solubility in a simulated body fluid
Format: physicochemical
Description: Test on the Solubility in a Simulated Body Fluid
The concentration of the drug dissolved in the PBS buffered solution was determined with an HPLC-a method.

[1] = 0.01 M PBS pH 7.4, 37° C., 5 min
[2] = 0.01 M PBS pH 7.4, 37° C., 15 min
[3] = 0.01 M PBS pH 7.4, 37° C., 30 min
[4] = 0.01 M PBS pH 7.4, 37° C., 24 h

For `CCCCN1CCCCC1C(=O)Nc1c(C)cccc1C.CCCCN1CCCCC1C(=O)Nc1c(C)cccc1C.O=C(O)c1cc2ccccc2c(Cc2c(O)c(C(=O)O)cc3ccccc23)c1O` [Preparation Example 30, bis(bupivacaine) pamoate], the “Compound concentration: Bupivacaine” value [1] was 142.3 µM, the “Compound concentration: Pamoic acid” value [1] was 75.7 µM and the “Compound concentration: Bupivacaine” value [2] was 218.8 µM. For the same molecule, the “Compound concentration: Pamoic acid” value [2] was 111.6 µM, the “Compound concentration: Bupivacaine” value [3] was 233.7 µM and the “Compound concentration: Pamoic acid” value [3] was 128.5 µM. For the same molecule, the “Compound concentration: Bupivacaine” value (0.01 M PBS pH 7.4, 37° C., 1 h) was 280.5 µM, the “Compound concentration: Pamoic acid” value (0.01 M PBS pH 7.4, 37° C., 1 h) was 135.6 µM and the “Compound concentration: Bupivacaine” value (0.01 M PBS pH 7.4, 37° C., 2 h) was 277.3 µM. The “Compound concentration: Pamoic acid” value (0.01 M PBS pH 7.4, 37° C., 2 h) was 130.8 µM, the “Compound concentration: Bupivacaine” value (0.01 M PBS pH 7.4, 37° C., 6 h) was 287.2 µM and the “Compound concentration: Pamoic acid” value (0.01 M PBS pH 7.4, 37° C., 6 h) was 137.9 µM. For the same molecule, the “Compound concentration: Bupivacaine” value [4] was 286.9 µM, the “Compound concentration: Pamoic acid” value [4] was 140.2 µM and the “stability of the suspension (ratio between acid radical and basic group)” value (simulated body fluid) was “stable”. For the same molecule, the “solubility” value (simulated body fluid, 0.01 M PBS pH 7.4, 37° C.) was “about 0.3 mM”.
